Measurements as given in patent US7087642B2 (priority 1999, dated 2006).
Like-named read-outs stand apart in the source and are kept apart here.

Legend:
human PBMC B cells = assay: cells; assay type: cell-based; details: read-out: B-cells (IC50)
human PBMC T cells = assay: cells; assay type: cell-based; details: Homo sapiens, 72 h, read-out: T-cells (IC50)
IMPDH human type II = IMPDH human type II (Homo sapiens, UniProt P12268); assay: biochemical

Compound | Ki (IMPDH human type II; read-out: Ki) | further results
COc1cc(NC(=O)Nc2cccc(CNC(=O)OC(CC#N)CN(C)C)c2)ccc1-c1cnco1 (stereo not shown) [Compound 17] |  | IC50 (human PBMC B cells; Homo sapiens, 72 h): > 1 µM; IC50 (human PBMC T cells): > 1 µM
COc1cc(NC(=O)Nc2cccc(CNC(=O)O[C@H](CC#N)CN(C)C)c2)ccc1-c1cnco1 [Compound 17] | < 0.01 µM | 
COc1cc(NC(=O)Nc2cccc(CNC(=O)OC(CC#N)CN3CCCCC3)c2)ccc1-c1cnco1 (stereo not shown) [Compound 21] |  | IC50 (human PBMC B cells; Homo sapiens, 72 h): > 1 µM; IC50 (human PBMC T cells): 0.1 to 1 µM
COc1cc(NC(=O)Nc2cccc(CNC(=O)O[C@@H](CC#N)CN3CCCCC3)c2)ccc1-c1cnco1 [Compound 21] | < 0.01 µM | 
COc1cc(NC(=O)Nc2cccc(CNC(=O)OC(CCl)CC#N)c2)ccc1-c1cnco1 (stereo not shown) [Compound 25] |  | IC50 (human PBMC B cells; Homo sapiens, 72 h): 0.1 to 1 µM; IC50 (human PBMC T cells): 0.1 to 1 µM
COc1cc(NC(=O)Nc2cccc(CNC(=O)O[C@@H](CCl)CC#N)c2)ccc1-c1cnco1 [Compound 25] | < 0.01 µM | 
COc1cc(NC(=O)Nc2cccc(CNC(=O)OC(CCN(C)C(=O)OC(C)(C)C)c3ccccc3)c2)ccc1-c1cnco1 (stereo not shown) [Compound 31] | 0.01 to 0.05 µM | 
COc1cc(NC(=O)Nc2cccc(CNC(=O)O[C@H](CCC#N)COCc3ccccc3)c2)ccc1-c1cnco1 [Compound 53] | < 0.01 µM | 
CC[C@H](COCc1ccccc1)OC(=O)NCc1cccc(NC(=O)Nc2ccc(-c3cnco3)c(OC)c2)c1 [Compound 54] | < 0.01 µM | 
COc1cc(NC(=O)Nc2cccc(CNC(=O)O[C@H](CC#N)COCc3ccccc3)c2)ccc1-c1cnco1 [Compound 55] | < 0.01 µM | 
COc1cc(NC(=O)Nc2cccc(CNC(=O)OC(CCN3CCCC3)c3ccccc3)c2)ccc1-c1cnco1 (stereo not shown) [Compound 56] | < 0.01 µM | IC50 (human PBMC B cells; Homo sapiens, 72 h): 0.1 to 1 µM
COc1cc(NC(=O)Nc2cccc(CNC(=O)O[C@@H]3CC[C@H](OC(C)=O)C3)c2)ccc1-c1cnco1 [Compound 85] | > 0.05 µM | 
COc1cc(NC(=O)Nc2cccc(CNC(=O)OC3CCC[C@H]3N3CCOCC3)c2)ccc1-c1cnco1 (stereo partly shown) [Compound 86] |  | IC50 (human PBMC B cells; Homo sapiens, 72 h): > 1 µM; IC50 (human PBMC T cells): > 1 µM
COc1cc(NC(=O)Nc2cccc(CNC(=O)O[C@@H]3CCC[C@H]3N3CCOCC3)c2)ccc1-c1cnco1 [Compound 86] | 0.01 to 0.05 µM | 
CC[C@H](COC(=O)CNC(=O)OC(C)(C)C)OC(=O)NCc1cccc(NC(=O)Nc2ccc(-c3cnco3)c(OC)c2)c1 [Compound 93] | 0.01 to 0.05 µM | 
CC[C@H](COC(C)=O)OC(=O)NCc1cccc(NC(=O)Nc2ccc(-c3cnco3)c(OC)c2)c1 [Compound 94] | < 0.01 µM | 
CC[C@H](COC(=O)CN)OC(=O)NCc1cccc(NC(=O)Nc2ccc(-c3cnco3)c(OC)c2)c1 [Compound 95] | 0.01 to 0.05 µM | 
CC[C@H](COP(=O)(O)O)OC(=O)NCc1cccc(NC(=O)Nc2ccc(-c3cnco3)c(OC)c2)c1 [Compound 96] | 0.01 to 0.05 µM | 
COc1cc(NC(=O)Nc2cccc(CNC(=O)OC(CN3CCSCC3)c3ccccc3)c2)ccc1-c1cnco1 (stereo not shown) [Compound 105] |  | IC50 (human PBMC B cells; Homo sapiens, 72 h): 0.1 to 1 µM; IC50 (human PBMC T cells): 0.1 to 1 µM
COc1cc(NC(=O)Nc2cccc(CNC(=O)O[C@H](CN3CCSCC3)c3ccccc3)c2)ccc1-c1cnco1 [Compound 105] | < 0.01 µM | 

Compound | Ki (IMPDH human type II; read-out: Ki) | further results
COc1cc(NC(=O)Nc2cccc(CNC(=O)OC(CN3CC[S+]([O-])CC3)c3ccccc3)c2)ccc1-c1cnco1 (stereo not shown) [Compound 106] |  | IC50 (human PBMC B cells; Homo sapiens, 72 h): < 0.1 µM; IC50 (human PBMC T cells): < 0.1 µM
COc1cc(NC(=O)Nc2cccc(CNC(=O)O[C@H](CN3CC[S+]([O-])CC3)c3ccccc3)c2)ccc1-c1cnco1 [Compound 106] | > 0.05 µM | 
CCCN(CC)CC(OC(=O)NCc1cccc(NC(=O)Nc2ccc(-c3cnco3)c(OC)c2)c1)c1ccccc1 (stereo not shown) [Compound 111] |  | IC50 (human PBMC B cells; Homo sapiens, 72 h): 0.1 to 1 µM; IC50 (human PBMC T cells): 0.1 to 1 µM
CCCN(CC)C[C@@H](OC(=O)NCc1cccc(NC(=O)Nc2ccc(-c3cnco3)c(OC)c2)c1)c1ccccc1 [Compound 111] | > 0.05 µM | 
COc1cc(NC(=O)Nc2cccc(CNC(=O)OC(CCN(C)CC(C)C)c3ccccc3)c2)ccc1-c1cnco1 (stereo not shown) [Compound 124] | > 0.05 µM | 
CCN(CC1CC1)CC(OC(=O)NCc1cccc(NC(=O)Nc2ccc(-c3cnco3)c(OC)c2)c1)c1ccccc1 (stereo not shown) [Compound 134] |  | IC50 (human PBMC B cells; Homo sapiens, 72 h): 0.1 to 1 µM; IC50 (human PBMC T cells): 0.1 to 1 µM
CCN(CC1CC1)C[C@@H](OC(=O)NCc1cccc(NC(=O)Nc2ccc(-c3cnco3)c(OC)c2)c1)c1ccccc1 [Compound 134] | 0.01 to 0.05 µM | 
CCN(CC(OC(=O)NCc1cccc(NC(=O)Nc2ccc(-c3cnco3)c(OC)c2)c1)c1ccccc1)C1CC1 (stereo not shown) [Compound 135] | > 0.05 µM | 
CCCN(CC(OC(=O)NCc1cccc(NC(=O)Nc2ccc(-c3cnco3)c(OC)c2)c1)c1ccccc1)C1CC1 (stereo not shown) [Compound 136] | > 0.05 µM | 
COc1cc(NC(=O)Nc2cccc(CNC(=O)O[C@H](CN(CC3CC3)C3CC3)c3ccccc3)c2)ccc1-c1cnco1 [Compound 137] | > 0.05 µM | 
CCC(COS(N)(=O)=O)OC(=O)NCc1cccc(NC(=O)Nc2ccc(-c3cnco3)c(OC)c2)c1 (stereo not shown) [Compound 138] |  | IC50 (human PBMC B cells; Homo sapiens, 72 h): 0.1 to 1 µM; IC50 (human PBMC T cells): 0.1 to 1 µM
CC[C@H](COS(N)(=O)=O)OC(=O)NCc1cccc(NC(=O)Nc2ccc(-c3cnco3)c(OC)c2)c1 [Compound 138] | < 0.01 µM | 
CCN(C)CCC(OC(=O)NCc1cccc(NC(=O)Nc2ccc(-c3cnco3)c(OC)c2)c1)c1ccccc1 (stereo not shown) [Compound 139] |  | Ki (IMPDH human type II): > 0.05 µM
CCN(CC)CCC(OC(=O)NCc1cccc(NC(=O)Nc2ccc(-c3cnco3)c(OC)c2)c1)c1ccccc1 (stereo not shown) [Compound 140] |  | Ki (IMPDH human type II): > 0.05 µM
COc1cc(NC(=O)Nc2cccc(CNC(=O)O[C@H](CO)CCO)c2)ccc1-c1cnco1 [Compound 141] | 0.01 to 0.05 µM | 
CCN(CC)CC(OC(=O)NCc1cccc(NC(=O)Nc2ccc(-c3cnco3)c(OC)c2)c1)c1nccs1 (stereo not shown) [Compound 142] | 0.01 to 0.05 µM | 
CCN(CC)CC(OC(=O)NCc1cccc(NC(=O)Nc2ccc(-c3cnco3)c(OC)c2)c1)C1CCCCC1 (stereo not shown) [Compound 157] |  | IC50 (human PBMC B cells; Homo sapiens, 72 h): < 0.1 µM; IC50 (human PBMC T cells): < 0.1 µM
CCN(CC)C[C@@H](OC(=O)NCc1cccc(NC(=O)Nc2ccc(-c3cnco3)c(OC)c2)c1)C1CCCCC1 [Compound 157] | 0.01 to 0.05 µM | 
CCC(COC(N)=O)OC(=O)NCc1cccc(NC(=O)Nc2ccc(-c3cnco3)c(OC)c2)c1 (stereo not shown) [Compound 159] |  | IC50 (human PBMC B cells; Homo sapiens, 72 h): 0.1 to 1 µM; IC50 (human PBMC T cells): 0.1 to 1 µM
CC[C@H](COC(N)=O)OC(=O)NCc1cccc(NC(=O)Nc2ccc(-c3cnco3)c(OC)c2)c1 [Compound 159] | < 0.01 µM | 

Compound | Ki (IMPDH human type II; read-out: Ki) | further results
CCC(CNC(=O)OC(C)(C)C)OC(=O)NCc1cccc(NC(=O)Nc2ccc(-c3cnco3)c(OC)c2)c1 (stereo not shown) [Compound 160] | > 0.05 µM | 
CCC(CN)OC(=O)NCc1cccc(NC(=O)Nc2ccc(-c3cnco3)c(OC)c2)c1 (stereo not shown) [Compound 161] | < 0.01 µM | 
CCC(CO)OC(=O)N[C@@H](C)c1cccc(NC(=O)Nc2ccc(-c3cnco3)c(OC)c2)c1 (stereo partly shown) [Compound 164] |  | IC50 (human PBMC B cells; Homo sapiens, 72 h): 0.1 to 1 µM; IC50 (human PBMC T cells): 0.1 to 1 µM
CC[C@H](CO)OC(=O)N[C@@H](C)c1cccc(NC(=O)Nc2ccc(-c3cnco3)c(OC)c2)c1 [Compound 164] | 0.01 to 0.05 µM | 
CC[C@H](CO)OC(=O)N[C@H](C)c1cccc(NC(=O)Nc2ccc(-c3cnco3)c(OC)c2)c1 [Compound 165] | > 0.05 µM | 
CCN(CC)C[C@@H](OC(=O)NC(C)c1cccc(NC(=O)Nc2ccc(-c3cnco3)c(OC)c2)c1)c1ccccc1 (stereo partly shown) [Compound 167] | > 0.05 µM | 
CCC(CC#N)OC(=O)N[C@@H](C)c1cccc(NC(=O)Nc2ccc(C#N)c(OC)c2)c1 (stereo partly shown) [Compound 168] |  | IC50 (human PBMC B cells; Homo sapiens, 72 h): 0.1 to 1 µM; IC50 (human PBMC T cells): 0.1 to 1 µM
CC[C@@H](CC#N)OC(=O)N[C@@H](C)c1cccc(NC(=O)Nc2ccc(C#N)c(OC)c2)c1 [Compound 168] |  | Ki (IMPDH human type II): 0.01 to 0.05 µM
CCC(CC#N)OC(=O)N[C@H](C)c1cccc(NC(=O)Nc2ccc(-c3cnco3)c(OC)c2)c1 (stereo partly shown) [Compound 171] |  | IC50 (human PBMC B cells; Homo sapiens, 72 h): < 0.1 µM; IC50 (human PBMC T cells): 0.1 to 1 µM
CC[C@H](CC#N)OC(=O)N[C@H](C)c1cccc(NC(=O)Nc2ccc(-c3cnco3)c(OC)c2)c1 [Compound 171] | > 0.05 µM | 
CCC(CC#N)OC(=O)N[C@H](C)c1cccc(NC(=O)Nc2ccc(C#N)c(OC)c2)c1 (stereo partly shown) [Compound 172] |  | IC50 (human PBMC B cells): > 1 µM; IC50 (human PBMC T cells): > 1 µM
CC[C@@H](CC#N)OC(=O)N[C@H](C)c1cccc(NC(=O)Nc2ccc(C#N)c(OC)c2)c1 [Compound 172] |  | Ki (IMPDH human type II): > 0.05 µM
CCC(CO)OC(=O)N[C@@H](C)c1cccc(NC(=O)Nc2ccc(C#N)c(OC)c2)c1 (stereo partly shown) [Compound 176] |  | IC50 (human PBMC B cells; Homo sapiens, 72 h): > 1 µM; IC50 (human PBMC T cells): > 1 µM
CC[C@@H](CO)OC(=O)N[C@@H](C)c1cccc(NC(=O)Nc2ccc(C#N)c(OC)c2)c1 [Compound 176] | > 0.05 µM | 
CCC(NC(=O)O[C@@H](CC)CC#N)c1cccc(NC(=O)Nc2ccc(C#N)c(OC)c2)c1 (stereo partly shown) [Compound 177] | > 0.05 µM | 
CCC(NC(=O)O[C@H](CC)CC#N)c1cccc(NC(=O)Nc2ccc(C#N)c(OC)c2)c1 (stereo partly shown) [Compound 178] | > 0.05 µM | 
CC[C@H](CC#N)OC(=O)N[C@@H](C)c1cccc(NC(=O)Nc2ccc(C#N)c(Cl)c2)c1 [Compound 183] |  | Ki (IMPDH human type II): 0.01 to 0.05 µM
COc1cc(NC(=O)Nc2cccc([C@H](C)NC(=O)O[C@@H]3CCOC3)c2)ccc1C#N [Compound 184] | 0.01 to 0.05 µM | 
CCOc1cc(NC(=O)Nc2cccc([C@H](C)NC(=O)O[C@H]3CCOC3)c2)ccc1C#N [Compound 186] | > 0.05 µM | 
